Results on five molecules are retold here after ChEMBL document CHEMBL4177647, “Conformational properties of ascydiacyclamide analogues with cyclic α-amino acids instead of oxazoline residues” (2017).

Values after ≈ are worked out from the molar mass of the structure shown.

Format in all cases: functional
The subject of assay [1] is HL-60. The experiment in a line: Cytotoxicity against human HL60 cells after 72 hrs by MTT assay. The note with it: HL-60, 72 h, read-out: ED50 (the source's name).
Assay [2] has as its system P388. Briefly: Cytotoxicity against mouse P388 cells after 72 hrs by MTT assay. The note with it: P388, 72 h, read-out: ED50 (the source's name).
Assay [3] deals with HL-60. Briefly: Potency index, ratio of ED50 for Ascidiacyclamide to ED50 test compound against human HL60 cells after 72 hrs by MTT assay.
For assay [4], the system named is P388. The experiment in a line: Cytotoxicity against mouse P388 cells after 72 hrs by MTT assay relative to Ascidiacyclamide.

For `CC[C@H](C)[C@@H]1NC(=O)c2csc(n2)[C@@H](C(C)C)NC(=O)[C@@H]2CCN2C(=O)[C@H]([C@@H](C)CC)NC(=O)c2csc(n2)[C@@H](C(C)C)NC(=O)[C@@H]2CCN2C1=O`, the EC50 in the assay on HL-60 [1] and in the assay on P388 [2] was over 100 µg/mL each time.
For the molecule `CC[C@H](C)[C@@H]1NC(=O)c2csc(n2)[C@@H](C(C)C)NC(=O)[C@@H]2CCCN2C(=O)[C@H]([C@@H](C)CC)NC(=O)c2csc(n2)[C@@H](C(C)C)NC(=O)[C@@H]2CCCN2C1=O`, the EC50 in the assay with HL-60 [1] was 10.4 µg/mL (≈ 13.2 µM); in the assay on P388 [2], 19.4 µg/mL (≈ 24.7 µM). Further, the “Ratio ED50” value in the assay on HL-60 [3] is listed as 3.
Turning to `CC[C@H](C)[C@@H]1NC(=O)c2csc(n2)[C@@H](C(C)C)NC(=O)[C@H]2N=C(O[C@@H]2C)[C@H]([C@@H](C)CC)NC(=O)c2csc(n2)[C@@H](C(C)C)NC(=O)[C@H]2N=C1O[C@@H]2C` [ASCIDIACYCLAMIDE], in the assay on P388 [2], the EC50 stood at 10.5 µg/mL (≈ 13.9 µM).
Consider `CC[C@H](C)[C@@H]1NC(=O)c2csc(n2)[C@@H](C(C)C)NC(=O)[C@@H]2C=CCN2C(=O)[C@H]([C@@H](C)CC)NC(=O)c2csc(n2)[C@@H](C(C)C)NC(=O)[C@@H]2C=CCN2C1=O`, for which the EC50 in the assay with HL-60 [1] and with P388 [2] was over 100 µg/mL in each case.
Regarding `CC[C@H](C)[C@@H]1NC(=O)c2csc(n2)[C@@H](C(C)C)NC(=O)[C@@H]2CCCCN2C(=O)[C@H]([C@@H](C)CC)NC(=O)c2csc(n2)[C@@H](C(C)C)NC(=O)[C@@H]2CCCCN2C1=O`, the EC50 in the assay on HL-60 [1] is 15 µg/mL (≈ 18.4 µM); in the assay on P388 [2], 15.8 µg/mL (≈ 19.4 µM). Besides, the “Ratio ED50” value in the assay on HL-60 [3] was determined as 2. For the same molecule, in the assay with P388 [4], the Activity is reported as 66%.
